Assay results reported in publication PMC6478789, “A chemical toolbox for the study of bromodomains and epigenetic signaling” (Nature Communications, 2019).
Where two headings read alike, the source gives them in different places. Values belong to the compound of their own block, whether it stands above or below them.

Experiments:
BRD1 = target: T1, BRD1 (Homo sapiens, UniProt O95696); test: BROMOscan ligand-binding assay
T1 sequence (O95696 562-666 limits assumed): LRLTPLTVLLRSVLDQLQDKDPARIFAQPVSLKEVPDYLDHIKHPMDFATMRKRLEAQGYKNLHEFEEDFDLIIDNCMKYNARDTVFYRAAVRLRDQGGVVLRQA
Source text: (§1) BROMOscan is a binding assay based on the well-known KINOMEscan technology. This assay measures the binding of a DNA-tagged bromodomain to an immobilized BRD ligand. If an inhibitor is present, it will compete with the bromodomain binding to the immobilized ligand, resulting in reduction of a quantitative PCR (qPCR) signal in a dose-dependent manner.

CECR2 = CECR2 (Homo sapiens, UniProt Q9BXF3); test: BROMOscan ligand-binding assay; conditions: CECR2
Source text: as §1

BRD3(2) = BRD3(2) (Homo sapiens, UniProt Q15059); test: BROMOscan ligand-binding assay; conditions: BROMOscan, BRD3(2)
Source text: as §1

BAZ2B = target: T2, BAZ2B (Homo sapiens, UniProt Q9UIF8); test: BROMOscan ligand-binding assay
T2 sequence (Q9UIF8 2060-2164 limits assumed): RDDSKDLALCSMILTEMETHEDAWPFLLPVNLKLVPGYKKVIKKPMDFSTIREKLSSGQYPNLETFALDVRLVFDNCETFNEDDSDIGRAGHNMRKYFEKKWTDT
Source text: as §1

BRD4(fl) = BRD4(fl) (Homo sapiens, UniProt O60885); test: BROMOscan ligand-binding assay
Source text: as §1

BRPF1 [1] = target: T3, BRPF1 (Homo sapiens, UniProt P55201); test: BROMOscan ligand-binding assay; conditions: BRPF1
T3 sequence (P55201 628-732 limits assumed): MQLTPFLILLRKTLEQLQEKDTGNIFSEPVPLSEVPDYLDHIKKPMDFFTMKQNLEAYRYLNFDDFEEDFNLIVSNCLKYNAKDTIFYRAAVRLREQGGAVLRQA
Source text: as §1

BRDT(1,2) = BRDT(1,2) (Homo sapiens, UniProt Q58F21); test: BROMOscan ligand-binding assay; conditions: BRDT(1,2)
Source text: as §1

EP300 [2] = target: T4, EP300 (Homo sapiens, UniProt Q09472); test: BROMOscan ligand-binding assay; conditions: EP300
T4 sequence (Q09472 1049-1156 limits assumed): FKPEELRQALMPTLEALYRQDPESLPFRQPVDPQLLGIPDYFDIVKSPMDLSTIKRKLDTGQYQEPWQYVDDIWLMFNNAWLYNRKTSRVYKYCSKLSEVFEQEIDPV
Source text: as §1

BRDT(1) = BRDT(1) (Homo sapiens, UniProt Q58F21); test: BROMOscan ligand-binding assay; conditions: BRDT(1)
Source text: as §1

WDR9(2) = WDR9(2) (Homo sapiens, UniProt Q9NSI6); test: BROMOscan ligand-binding assay; conditions: WDR9(2)
Source text: as §1

PBRM1(5) = PBRM1(5) (Homo sapiens, UniProt Q86U86); test: BROMOscan ligand-binding assay; conditions: PBRM1(5)
Source text: as §1

BRD2(1) = BRD2(1) (Homo sapiens, UniProt P25440); test: BROMOscan ligand-binding assay
Source text: as §1

BRD3(1) = BRD3(1) (Homo sapiens, UniProt Q15059); test: BROMOscan ligand-binding assay; conditions: BROMOscan, BRD3(1)
Source text: as §1

BRD8(2) = BRD8(2) (Homo sapiens, UniProt Q9H0E9); test: BROMOscan ligand-binding assay
Source text: as §1

FALZ = FALZ (Homo sapiens, UniProt Q12830); test: BROMOscan ligand-binding assay; conditions: FALZ
Source text: as §1

HAT1 = target: T5, HAT1 (Homo sapiens, UniProt O14929); test: Histone acetyltransferase (HAT) activity assay; format: biochemical; conditions: read-out: HATs Activity (%);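 note: HAT selectivity screen of BRD probe compounds, enzyme activity in % measured with compound at 1 µM and 10 µM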
T5 sequence (O14929 1-419): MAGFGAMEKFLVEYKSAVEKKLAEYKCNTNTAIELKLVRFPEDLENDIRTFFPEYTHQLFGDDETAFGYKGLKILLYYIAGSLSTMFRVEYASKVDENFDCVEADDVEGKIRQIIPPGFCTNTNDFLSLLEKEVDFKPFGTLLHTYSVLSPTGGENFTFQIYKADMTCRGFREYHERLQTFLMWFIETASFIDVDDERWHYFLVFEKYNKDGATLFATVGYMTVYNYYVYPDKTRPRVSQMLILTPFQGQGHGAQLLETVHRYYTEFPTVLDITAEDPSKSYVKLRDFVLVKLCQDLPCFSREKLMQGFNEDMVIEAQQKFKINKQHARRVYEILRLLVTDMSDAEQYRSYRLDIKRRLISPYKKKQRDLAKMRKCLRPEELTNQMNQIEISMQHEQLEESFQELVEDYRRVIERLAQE

EP300 [3] = target: EP300 (Homo sapiens, UniProt Q09472); test: Histone acetyltransferase (HAT) activity assay; format: biochemical; conditions: read-out: HATs Activity (%);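 note: selectivity screen of bromodomain probe compounds against histone acetyltransferases, with enzyme activity given in percent for compounds tested at 1 and 10 µM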
GCN5L2 = GCN5L2 (Homo sapiens, UniProt Q92830); test: Histone acetyltransferase (HAT) activity assay; format: biochemical; conditions: read-out: HATs Activity (%);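 note: selectivity screen of BRD probe compounds across a panel of histone acetyltransferases, HAT activity in % with compound at 1 or 10 µM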
MYST1 = target: T6, MYST1 (Homo sapiens, UniProt Q9H7Z6); test: Histone acetyltransferase (HAT) activity assay; format: biochemical; conditions: read-out: HATs Activity (%);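 note: selectivity screen across a panel of histone acetyltransferases, with compounds tested at 1 and 10 µM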
T6 sequence (Q9H7Z6 1-458): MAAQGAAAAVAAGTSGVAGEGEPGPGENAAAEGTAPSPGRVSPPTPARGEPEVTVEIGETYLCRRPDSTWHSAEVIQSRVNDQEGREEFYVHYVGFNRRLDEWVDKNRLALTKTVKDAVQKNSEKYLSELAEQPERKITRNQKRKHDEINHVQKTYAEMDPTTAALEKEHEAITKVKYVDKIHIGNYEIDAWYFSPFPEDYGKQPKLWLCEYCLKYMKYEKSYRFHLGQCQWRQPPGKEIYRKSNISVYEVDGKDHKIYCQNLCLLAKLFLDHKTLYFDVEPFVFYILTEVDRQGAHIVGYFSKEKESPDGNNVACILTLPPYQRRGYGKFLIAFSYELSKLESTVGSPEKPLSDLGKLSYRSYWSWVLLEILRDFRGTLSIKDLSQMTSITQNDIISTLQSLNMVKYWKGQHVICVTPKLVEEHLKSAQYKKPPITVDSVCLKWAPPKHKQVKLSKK

MYST3 = MYST3 (Homo sapiens, UniProt Q92794); test: Histone acetyltransferase (HAT) activity assay; format: biochemical; conditions: read-out: HATs Activity (%);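 note: selectivity screen of bromodomain probe compounds across a panel of histone acetyltransferases, read out as enzyme activity in %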
BRPF1 [4] = target: BRPF1 (Homo sapiens, UniProt P55201); test: Temperature shift assay (non-BRD reader domains); format: binding; conditions: 10µM compound
Target sequence in this assay (P55201 1085-1168 limits assumed, species assumed): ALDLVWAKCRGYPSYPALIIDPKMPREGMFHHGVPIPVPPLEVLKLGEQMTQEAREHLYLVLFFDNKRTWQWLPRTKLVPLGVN

[5] = KD (BROMOscan), sheet prints no unit (nM)

Sequence of MYST3 (Q92794 whole entry, species assumed, the tested form may be a part): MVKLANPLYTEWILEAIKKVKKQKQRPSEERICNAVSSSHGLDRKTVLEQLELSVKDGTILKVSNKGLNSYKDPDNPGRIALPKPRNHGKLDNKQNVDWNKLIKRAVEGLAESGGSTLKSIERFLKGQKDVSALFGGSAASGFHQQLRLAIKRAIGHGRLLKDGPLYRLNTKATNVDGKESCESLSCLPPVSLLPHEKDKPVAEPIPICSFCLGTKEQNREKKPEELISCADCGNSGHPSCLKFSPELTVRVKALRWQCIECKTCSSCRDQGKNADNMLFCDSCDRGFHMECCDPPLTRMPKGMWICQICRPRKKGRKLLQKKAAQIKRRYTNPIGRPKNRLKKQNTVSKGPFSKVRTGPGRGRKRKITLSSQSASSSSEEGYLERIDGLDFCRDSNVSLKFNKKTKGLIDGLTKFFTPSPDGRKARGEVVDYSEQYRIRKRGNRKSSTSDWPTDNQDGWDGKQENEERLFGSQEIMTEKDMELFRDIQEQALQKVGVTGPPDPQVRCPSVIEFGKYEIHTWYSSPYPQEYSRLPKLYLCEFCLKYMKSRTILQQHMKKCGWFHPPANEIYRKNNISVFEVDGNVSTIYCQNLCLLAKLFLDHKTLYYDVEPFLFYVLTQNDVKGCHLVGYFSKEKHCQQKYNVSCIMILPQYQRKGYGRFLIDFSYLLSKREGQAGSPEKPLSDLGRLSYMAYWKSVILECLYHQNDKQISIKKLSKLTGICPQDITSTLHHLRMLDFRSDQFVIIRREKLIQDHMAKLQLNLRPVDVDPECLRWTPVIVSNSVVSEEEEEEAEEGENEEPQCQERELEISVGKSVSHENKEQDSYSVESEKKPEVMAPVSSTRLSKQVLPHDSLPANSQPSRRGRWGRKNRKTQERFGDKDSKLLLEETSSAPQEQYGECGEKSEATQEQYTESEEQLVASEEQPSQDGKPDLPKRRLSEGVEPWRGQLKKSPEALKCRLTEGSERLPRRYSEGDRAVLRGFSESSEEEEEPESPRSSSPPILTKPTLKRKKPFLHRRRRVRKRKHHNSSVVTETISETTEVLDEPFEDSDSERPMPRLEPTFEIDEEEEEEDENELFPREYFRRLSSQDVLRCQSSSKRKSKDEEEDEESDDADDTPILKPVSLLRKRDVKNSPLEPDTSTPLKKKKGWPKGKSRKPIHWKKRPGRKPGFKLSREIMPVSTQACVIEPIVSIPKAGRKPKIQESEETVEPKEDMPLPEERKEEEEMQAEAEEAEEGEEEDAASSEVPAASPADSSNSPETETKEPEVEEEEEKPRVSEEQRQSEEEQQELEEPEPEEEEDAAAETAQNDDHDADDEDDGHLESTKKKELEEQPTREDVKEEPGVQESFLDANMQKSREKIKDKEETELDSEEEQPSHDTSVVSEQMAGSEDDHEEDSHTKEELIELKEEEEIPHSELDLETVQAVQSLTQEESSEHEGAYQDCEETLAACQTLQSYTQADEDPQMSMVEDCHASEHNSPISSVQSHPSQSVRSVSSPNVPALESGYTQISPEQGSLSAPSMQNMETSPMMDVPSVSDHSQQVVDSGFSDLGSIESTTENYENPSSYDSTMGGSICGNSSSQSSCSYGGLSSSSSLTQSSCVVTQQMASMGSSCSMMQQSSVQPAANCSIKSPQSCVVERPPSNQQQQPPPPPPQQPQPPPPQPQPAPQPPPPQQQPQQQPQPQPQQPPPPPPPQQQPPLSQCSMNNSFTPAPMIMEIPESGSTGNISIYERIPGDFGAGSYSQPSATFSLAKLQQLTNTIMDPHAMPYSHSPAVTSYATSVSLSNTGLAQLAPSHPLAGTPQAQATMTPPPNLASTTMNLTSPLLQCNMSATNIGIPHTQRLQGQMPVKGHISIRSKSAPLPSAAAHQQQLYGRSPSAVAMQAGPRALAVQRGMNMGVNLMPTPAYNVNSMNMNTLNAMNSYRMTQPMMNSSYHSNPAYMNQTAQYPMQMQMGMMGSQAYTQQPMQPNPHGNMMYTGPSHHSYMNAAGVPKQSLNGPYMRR
Sequence of GCN5L2 (Q92830 whole entry, species assumed): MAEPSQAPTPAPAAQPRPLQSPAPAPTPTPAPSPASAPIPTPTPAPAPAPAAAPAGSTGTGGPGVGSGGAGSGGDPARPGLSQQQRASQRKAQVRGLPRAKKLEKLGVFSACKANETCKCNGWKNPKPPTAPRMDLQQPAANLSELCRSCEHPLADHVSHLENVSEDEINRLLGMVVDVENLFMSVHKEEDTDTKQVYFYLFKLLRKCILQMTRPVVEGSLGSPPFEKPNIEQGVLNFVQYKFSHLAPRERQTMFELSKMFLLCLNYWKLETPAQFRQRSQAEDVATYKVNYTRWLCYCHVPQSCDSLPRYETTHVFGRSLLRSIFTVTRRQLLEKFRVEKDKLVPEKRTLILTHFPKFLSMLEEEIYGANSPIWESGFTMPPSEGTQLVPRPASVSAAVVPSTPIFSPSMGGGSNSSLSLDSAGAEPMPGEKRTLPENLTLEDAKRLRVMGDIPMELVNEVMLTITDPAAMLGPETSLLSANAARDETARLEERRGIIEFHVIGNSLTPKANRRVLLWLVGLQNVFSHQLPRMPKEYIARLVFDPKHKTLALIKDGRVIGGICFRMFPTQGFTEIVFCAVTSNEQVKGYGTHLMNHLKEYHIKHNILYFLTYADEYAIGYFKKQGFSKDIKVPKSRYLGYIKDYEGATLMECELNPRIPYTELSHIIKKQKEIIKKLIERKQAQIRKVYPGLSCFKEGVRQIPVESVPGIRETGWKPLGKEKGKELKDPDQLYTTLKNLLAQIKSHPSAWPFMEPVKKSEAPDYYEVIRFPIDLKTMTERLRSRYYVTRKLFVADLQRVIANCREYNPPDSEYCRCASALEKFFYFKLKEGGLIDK
Sequence of WDR9(2) (Q9NSI6 1313-1418 limits assumed): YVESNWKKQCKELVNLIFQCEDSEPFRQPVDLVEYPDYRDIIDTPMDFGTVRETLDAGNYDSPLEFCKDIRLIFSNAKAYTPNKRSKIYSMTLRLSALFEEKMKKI
Sequence of CECR2 (Q9BXF3 434-538 limits assumed): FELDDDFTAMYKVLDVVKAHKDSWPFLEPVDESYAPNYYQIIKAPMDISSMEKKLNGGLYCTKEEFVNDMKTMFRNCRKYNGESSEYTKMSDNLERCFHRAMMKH
Sequence of BRD2(1) (P25440 74-180 limits assumed): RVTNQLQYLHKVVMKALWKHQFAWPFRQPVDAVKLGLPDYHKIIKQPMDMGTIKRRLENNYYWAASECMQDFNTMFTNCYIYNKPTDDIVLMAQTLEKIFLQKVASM
Sequence of PBRM1(5) (Q86U86 653-763 limits assumed): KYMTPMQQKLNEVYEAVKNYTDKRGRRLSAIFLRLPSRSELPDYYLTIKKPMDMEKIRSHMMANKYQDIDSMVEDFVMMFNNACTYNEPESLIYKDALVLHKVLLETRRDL
Sequence of BRD8(2) (Q9H0E9 1099-1207 limits assumed): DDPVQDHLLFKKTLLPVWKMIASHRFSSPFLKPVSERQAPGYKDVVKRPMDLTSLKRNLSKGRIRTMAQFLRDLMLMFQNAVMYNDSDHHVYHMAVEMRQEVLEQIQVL
Sequence of BRD3(2) (Q15059 306-415 limits assumed): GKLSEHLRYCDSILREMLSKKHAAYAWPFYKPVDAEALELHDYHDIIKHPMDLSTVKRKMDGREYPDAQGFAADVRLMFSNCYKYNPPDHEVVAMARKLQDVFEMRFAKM
Sequence of BRD3(1) (Q15059 34-140 limits assumed): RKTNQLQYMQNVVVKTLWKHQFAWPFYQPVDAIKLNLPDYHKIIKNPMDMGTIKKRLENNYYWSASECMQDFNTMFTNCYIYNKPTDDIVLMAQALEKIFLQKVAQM

Kd (BRD1; BROMOscan, BRD1): > 30 µM | Kd (CECR2; BROMOscan): > 30 µM | Kd (BRD3(2)): > 30 µM | Kd (BAZ2B; BROMOscan, BAZ2B): > 30000 nM | Kd (BRD4(fl); BROMOscan, BRD4(full-length,short-iso.)): > 30 µM | Kd (BRPF1 [1]; BROMOscan): > 30 µM | Kd (BRDT(1,2); BROMOscan): > 30 µM | Kd (EP300 [2]; BROMOscan): > 30 µM | Kd (BRDT(1); BROMOscan): 24 µM | Kd (WDR9(2); BROMOscan): > 30 µM | Kd (PBRM1(5); BROMOscan): 0.036 µM | Kd (BRD2(1); BROMOscan, BRD2(1)): > 30 µM | Kd (BRD3(1)): > 30 µM | Kd (BRD8(2); BROMOscan, BRD8(2)): > 30000 nM | Kd (FALZ; BROMOscan): > 30 µM
SMILES: O=C(C=CN1[C@H]2CC[C@@H]1c1ncnc(NC3CC3)c1C2)c1ccccc1O [PFI-3 D1]

Kd (BRD1): 21 µM | activity at 1 µM (HAT1): 96% | activity at 10 µM (HAT1): 97% | activity at 1 µM (EP300 [3]): 98% | activity at 10 µM (EP300 [3]): 92% | Kd (CECR2; KD, BROMOscan): 7.9 µM | activity at 1 µM (GCN5L2): 101% | activity at 10 µM (GCN5L2): 101% | Kd (BRD3(2); KD): 2.3 µM | Kd (BAZ2B; [5]): > 30000 nM | Kd (BAZ2B; KD, BROMOscan, BAZ2B): > 100000 nM | Kd (BRD4(fl)): 0.587 µM | activity at 1 µM (MYST1): 103% | activity at 10 µM (MYST1): 97% | Kd (BRPF1 [1]; KD, BROMOscan): 2.4 µM | Kd (BRDT(1,2); KD, BROMOscan): 3.1 µM | Kd (BRDT(1); KD, BROMOscan): 2.6 µM | Kd (WDR9(2); KD, BROMOscan): 12 µM | Kd (PBRM1(5); KD, BROMOscan): 49.7 µM | Kd (BRD2(1)): 0.62 µM | Kd (BRD3(1); KD): 0.74 µM | Kd (BRD8(2); [5]): > 30000 nM | Kd (BRD8(2); KD, BROMOscan, BRD8(2)): > 100000 nM | activity at 1 µM (MYST3): 103% | activity at 10 µM (MYST3): 103% | Kd (FALZ; KD, BROMOscan): 81 µM
SMILES: COc1ccc(CCc2nc3cc(-c4c(C)noc4C)ccc3n2C[C@H](C)N2CCOCC2)cc1Cl [SGC-CBP30]

Kd (BRD1): > 14000 µM | Kd (CECR2; KD): > 14000 µM | Kd (BAZ2B; KD, BAZ2B): > 1.4e+07 nM | Kd (BRD4(fl)): > 14000 µM | Kd (BRPF1 [1]; KD): 4200 µM | Kd (BRDT(1,2); KD): 6100 µM | Kd (EP300 [2]; KD): > 14000 µM | Kd (BRDT(1); KD): > 14000 µM | Kd (WDR9(2); KD): > 14000 µM | Kd (PBRM1(5); KD): 160 µM | Kd (BRD2(1)): > 14000 µM | Kd (BRD8(2); KD, BRD8(2)): > 1.4e+07 nM | Kd (FALZ; KD): > 14000 µM
SMILES: O=C(O)c1ccccc1O [Salicylic Acid]

activity at 1 µM (HAT1): 93% | activity at 10 µM (HAT1): 100% | activity at 1 µM (EP300 [3]): 99% | activity at 10 µM (EP300 [3]): 95% | activity at 1 µM (GCN5L2): 96% | activity at 10 µM (GCN5L2): 92% | activity at 1 µM (MYST1): 99% | activity at 10 µM (MYST1): 97% | activity at 1 µM (MYST3): 97% | activity at 10 µM (MYST3): 99% | Tm (C) 10µM, temperature shift (BRPF1 [4]): -0.3 Kelvin
SMILES: CN(C)CCCOc1ccc(-c2cc(NCCCn3cccn3)nc(S(C)(=O)=O)n2)cc1 [TP-238]
